Data set [1] deals with T1, mitochondrial benzodiazepine receptor (MBR) (Rattus norvegicus, UniProt P16257).
T1 construct: from tissue; host or cells: kidney of male Wistar rats (crude membrane preparation)
Put plainly: Binding assay of mitochondrial benzodiazepine receptor (MBR), [3H]4'-chlorodiazepam (Ro5-4864), rat kidney membrane-preparation. The note with it: rat kidney membranes, [3H]4'-chlorodiazepam 0.5 nM, 0° C. for 150 minutes. The procedure:
The binding assay of central-type benzodiazepine receptor (CBR) and the preparation of receptor membrane-preparation were carried out according to the partially modified method of Braestrup, C. et al. [see; Br. J. Psychiatry, 133, 249-260 (1978)] with a minor modification; the binding assay of mitochondrial benzodiazepine receptor (MBR) and the preparation of receptor membrane-preparation were carried out according to the method of Schoemaker, H [see; J. Pharmacol. Exp. Ther., 225, 61-69 (1983)] with a minor modification.
CBR and MBR membrane-preparations were prepared from forebrain (CBR) and kidney (MBR) of male Wistar strain rats according to the following procedure, respectively.
To the forebrain of rat, 20 volumes of ice-cold 0.32 M sucrose solution to wet-weight of the tissue (1:20, wet-weight/vol) was added and homogenized, and then the homogenate was centrifuged at 900×g for 10 minutes. The supernatant was centrifuged at 11,500×g for 20 minutes, a buffer I for the binding assay (50 mM Tris-hydrochloric acid buffer, pH 7.5) was added to the resultant precipitate, and the mixture was homogenized, and then it was centrifuged at 30,000×g for 10 minutes. The resulting precipitate was washed 3 times according to the same operation, suspended in the buffer I (1 g of wet-weight of tissue/10 ml) and used as a CBR membrane-preparation for the binding assay. The CBR membrane-preparation was stored at −80° C. until use, and on the day of the assay, it was thawed and suspended in the buffer for use. On the other hand, kidney of rat was homogenized in 20 volumes of ice-cold buffer II for the binding assay to wet-weight of the tissue (1:20, wet-weight/vol) (50 mM sodium phosphate-potassium phosphate buffer solution containing 100 mM sodium chloride, pH 7.4), and then filtrated through 4 layers of gauze, and the filtrate was centrifuged at 40,000×g for 20 minutes. The resulting precipitate was suspended in the buffer II (1 g of wet-weight of tissue/50 ml) and used as a MBR membrane-preparation for the binding assay.
As a labeled ligand and a non-labeled ligand, [^3H]flunitrazepam (final concentration: 1 nM) and diazepam (final concentration: 20 μM) were used respectively, for the CBR binding assay, and [^3H]4′-chlorodiazepam (Ro5-4864, chemical name: 7-chloro-1,3-dihydro-1-methyl-5-(4-chloro-phenyl)-2H-1,4-[…]) (final concentration: 0.5 nM) and diazepam (final concentration: 50 μM) were used respectively, for the MBR binding assay. The binding assay of CBR was carried out by incubating at 0° C. for 30 minutes, while that of MBR was at 0° C. for 150 minutes.
The receptor binding assay was carried out in the following procedure. The test compound which the concentration was known, a tritium labeled ligand, a receptor membrane-preparation and the buffer I or II for the binding assay were added to a 96-well microplate in the total volume was 0.2 ml, and when the receptor membrane-preparation was added, the reaction started. After the incubation, the labeled ligand binding to the receptor was filtrated through a filter plate (UNI FILTER-96GF/B, PerkinElmer, the U.S.) using a cell harvester (PerkinElmer, the U.S.) to stop the reaction. The filter was immediately washed 6 times with 0.3 ml of the ice-cold buffer [50 mM Tris-hydrochloric acid buffer (pH 7.7)]. After 30 μl of liquid scintillation cocktail (MICROSCINTI 20, PerkinElmer, the U.S.) was added to each well on the dried filter plate, the radioactivity was measured with a TopCount. The specific binding amount was obtained by subtracting the non-specific binding amount which was simultaneously measured in the presence of non-labeled ligand from the total binding amount. The concentration that the test compound could decrease the specific binding amount of the labeled ligand to 50% of the amount (IC50 value) was analyzed using nonlinear least-squares method.

`C[C@@H]1C[C@H](C)CN(C(=O)[C@@H]2Cc3ccccc3N2c2ccc(Cl)nn2)C1` [Example 36] showed a melting point of 182 to 184 °C. Also, the IC50 in data set [1] worked out at 1.28 nM.
In the case of `Cc1ccc(N2c3ccccc3C[C@H]2C(=O)N2CCC[C@H](C)C2)nn1` [Example 37], the melting point is 192 to 194 °C. This molecule returned a 50% inhibitory concentration (IC50) in data set [1] of 3.23 nM.
On to `Cc1ccc(N2c3ccccc3C[C@H]2C(=O)N2C[C@H](C)C[C@H](C)C2)nn1` [Example 38], for which the melting point was in the range of 158 to 159 °C. This molecule also returned a 50% inhibitory concentration (IC50) in data set [1] of 1.88 nM.
The molecule `COc1ccc(N2c3ccccc3C[C@H]2C(=O)N2C[C@H](C)C[C@H](C)C2)nn1` [Example 39] displayed a melting point of 173 to 175 °C. In data set [1], this molecule displayed an IC50 of 1.71 nM.
Molecule `C[C@@H]1C[C@H](C)CN(C(=O)[C@H]2Cc3ccccc3N2c2ncccn2)C1` [Example 42] gave a melting point of 159 to 160 °C. Besides, in data set [1], the IC50 was 14.3 nM.
Turning to `CC1CCCN(C(=O)[C@@H]2Cc3ccccc3N2c2cnccn2)C1` (some centres unmarked) [Example 59], the melting point is 177 to 179 °C. For the same molecule, the IC50 in data set [1] was found to be 12.9 nM.
As for `C[C@H]1CCCN(C(=O)[C@@H]2Cc3ccccc3N2c2cnccn2)C1` [Example 60, (S)-2-[(S)-3-methylpiperidin-1-yl]carbonyl-1-(2-pyrazinyl)indoline], the melting point lay in the range of 174 to 175 °C. In data set [1], this molecule displayed a 50% inhibitory concentration (IC50) of 1.54 nM.
On the same counts, the results for `C[C@@H]1C[C@H](C)CN(C(=O)[C@@H]2Cc3ccccc3N2c2cnccn2)C1` [Example 61, (S)-2-(cis-3,5-dimethylpiperidin-1-yl)carbonyl-1-(2-pyrazinyl)indoline] are 162 to 164 °C and 1.42 nM.
In the case of `C[C@@H]1CCCN(C(=O)[C@@H]2Cc3ccccc3N2c2cccnn2)C1` [Example 62], the melting point lay within 169 to 172 °C. The same molecule yielded an IC50 in data set [1] of 12.2 nM.
Molecule `C[C@H]1CCCN(C(=O)C2Cc3cc(F)ccc3N2c2ccc(Cl)nn2)C1` (some centres unmarked) [Example 67] showed a melting point of 164 to 168 °C. The same molecule returned an IC50 in data set [1] of 1.56 nM.
For `COc1cccc2c1CC(C(=O)N1CCC[C@H](C)C1)N2c1ccc(Cl)nn1` (some centres unmarked) [Example 68] the same measures were 223 to 226 °C and 1.67 nM.
Consider `COc1ccc2c(c1)CC(C(=O)N1CCC[C@H](C)C1)N2c1ccc(Cl)nn1` (some centres unmarked) [Example 69], for which the melting point lay in the range of 136 to 139 °C. In data set [1], this molecule yielded an IC50 of 4.51 nM.
For the molecule `COc1ccc2c(c1)N(c1ccc(Cl)nn1)C(C(=O)N1CCC[C@H](C)C1)C2` (some centres unmarked) [Example 70], the melting point was in the range of 184 to 186 °C. This molecule yielded an IC50 in data set [1] of 2.45 nM.
`C[C@H]1CCCN(C(=O)[C@@H]2Cc3ccccc3N2c2ccccn2)C1` [Example 72] yielded a melting point of 186 to 189 °C. This molecule came in with an IC50 in data set [1] of 0.659 nM.
Regarding `COc1ccc(N2c3ccccc3C[C@H]2C(=O)N2CCC[C@H](C)C2)nn1` [Example 73, (S)-1-(6-Methoxypyridazin-3-yl)-2-[[(S)-3-methylpiperidin-1-yl]carbonyl]indoline], the melting point lay within 134 to 137 °C. This molecule also registered an IC50 in data set [1] of 3.35 nM.
On the same counts, the results for `CC(C)Cn1nc(N2c3ccccc3C[C@H]2C(=O)N2CCC[C@H](C)C2)ccc1=O` [Example 75] are 215 to 216 °C and 2.77 nM.
As to `C[C@H]1CCCN(C(=O)[C@@H]2Cc3ccccc3N2c2ccc(=O)n(CC3CCCCC3)n2)C1` [Example 77], the melting point lay within 215 to 217 °C. This molecule also returned an IC50 in data set [1] of 3.15 nM.
Molecule `C[C@H]1CCCN(C(=O)[C@@H]2Cc3ccccc3N2c2ccc3nccn3n2)C1` [Example 78] displayed a melting point of 190 to 193 °C. The same molecule registered an IC50 in data set [1] of 2.53 nM.
`C[C@H]1CCCN(C(=O)[C@@H]2Cc3ccccc3N2c2ccc3nnc(Cl)n3n2)C1` [Example 79, (S)-1-(3-chloro-1,2,4-triazolo[4,3-b]pyridazin-6-yl)-2-[[(S)-3-methylpiperidin-1-yl]carbonyl]indoline] gave a melting point of 268 to 269 °C. In data set [1], this molecule showed an IC50 of 1.76 nM.
Molecule `C[C@H]1CCCN(C(=O)[C@@H]2Cc3ccccc3N2c2cnn(C)c(=O)c2)C1` [Example 83] came in with a melting point of 150 to 152 °C. Moreover, the IC50 in data set [1] stood at 9.33 nM.
For the molecule `C[C@H]1CCCN(C(=O)[C@@H]2Cc3cc(Br)ccc3N2c2cccnn2)C1` [Example 90], the melting point was 161 to 163 °C. Further, in data set [1], the IC50 stood at 6.54 nM.
Consider `C[C@H]1CCCN(C(=O)[C@@H]2Cc3cc(Cl)ccc3N2c2cccnn2)C1` [Example 91], for which the melting point lay within 175 to 177 °C. Further, in data set [1], the half-maximal inhibitory concentration (IC50) worked out at 2.31 nM.
As for `C[C@H]1CCCN(C(=O)[C@@H]2Cc3cc(Br)ccc3N2c2ccc(=O)n(C)n2)C1` [Example 93], the melting point fell in the range of 241 to 242 °C. This molecule also returned an IC50 in data set [1] of 5.81 nM.
In turn, `C[C@H]1CCCN(C(=O)[C@@H]2Cc3cc(Cl)ccc3N2c2ccc(=O)n(C)n2)C1` [Example 94] had a melting point of 243 to 244 °C. This molecule also yielded a concentration for half-maximal inhibition (IC50) in data set [1] of 16.7 nM.
`C=Cc1ccc2c(c1)C[C@@H](C(=O)N1CCC[C@H](C)C1)N2c1cccnn1` [Example 98] showed a melting point of 103 to 106 °C. For the same molecule, the IC50 in data set [1] is 44.3 nM.
Molecule `Cn1nc(N2c3ccccc3C[C@H]2C(=O)N2CCCCC2)ccc1=O` [Example 107, (S)-1-(1-methyl-6-oxo-1,6-dihydropyridazin-3-yl)-2-(1-piperidinylcarbonyl)indoline] yielded a melting point of 225 to 227 °C. This molecule also came in with a 50% inhibitory concentration (IC50) in data set [1] of 28.5 nM.
For `C[C@@H]1CCCN(C(=O)[C@@H]2Cc3ccccc3N2c2ccc(=O)n(C)n2)C1` [Example 122] the same measures were 191 to 193 °C and 26.8 nM.
`C[C@H]1CCCN(C(=O)[C@@H]2Cc3ccccc3N2c2ccc(=O)n(Cc3ccccc3)n2)C1` [Example 123, (S)-1-(1-benzyl-6-oxo-1,6-dihydropyridazin-3-yl)-2-[[(S)-3-methylpiperidin-1-yl]carbonyl]indoline] came in with a melting point of 220 to 222 °C. The same molecule returned a half-maximal inhibitory concentration (IC50) in data set [1] of 1.45 nM.
On the same counts, the results for `C[C@H]1CCCN(C(=O)[C@@H]2Cc3ccccc3N2c2ccc(=O)n(CC(F)F)n2)C1` [Example 127] are 173 to 175 °C and 1.97 nM.
Regarding `C[C@H]1CCCN(C(=O)[C@@H]2Cc3ccccc3N2c2ccc(=O)n(CCF)n2)C1` [Example 128, (S)-1-[1-(2-fluoroethyl)-6-oxo-1,6-dihydropyridazin-3-yl]-2-[[(S)-3-methylpiperidin-1-yl]carbonyl]indoline], the melting point is 229 to 230 °C. The molecule further had a half-maximal inhibitory concentration (IC50) in data set [1] of 3.91 nM.
Consider `CCCn1nc(N2c3ccccc3C[C@H]2C(=O)N2CCC[C@H](C)C2)ccc1=O` [Example 130], for which the melting point was 183 to 185 °C. Moreover, the IC50 in data set [1] was found to be 4.04 nM.

The melting point is the temperature, or range, at which the solid turns liquid. In general, IC50 refers to the concentration that gives 50% inhibition. A higher IC50 goes with lower potency.
